Results as given in ChEMBL document CHEMBL3526000 (Drug Metab Dispos, 2012).

Columns and labels:
UGT1A9 = molecular target: T1, UGT1A9 (Homo sapiens, UniProt O60656); test: Drug metabolism assessed as recombinant human UGT1A9 assessed as O-glucuronidation at 10 to 400 uM incubated for 60 mins by LC-MS/MS analysis
T1 sequence (O60656 whole entry): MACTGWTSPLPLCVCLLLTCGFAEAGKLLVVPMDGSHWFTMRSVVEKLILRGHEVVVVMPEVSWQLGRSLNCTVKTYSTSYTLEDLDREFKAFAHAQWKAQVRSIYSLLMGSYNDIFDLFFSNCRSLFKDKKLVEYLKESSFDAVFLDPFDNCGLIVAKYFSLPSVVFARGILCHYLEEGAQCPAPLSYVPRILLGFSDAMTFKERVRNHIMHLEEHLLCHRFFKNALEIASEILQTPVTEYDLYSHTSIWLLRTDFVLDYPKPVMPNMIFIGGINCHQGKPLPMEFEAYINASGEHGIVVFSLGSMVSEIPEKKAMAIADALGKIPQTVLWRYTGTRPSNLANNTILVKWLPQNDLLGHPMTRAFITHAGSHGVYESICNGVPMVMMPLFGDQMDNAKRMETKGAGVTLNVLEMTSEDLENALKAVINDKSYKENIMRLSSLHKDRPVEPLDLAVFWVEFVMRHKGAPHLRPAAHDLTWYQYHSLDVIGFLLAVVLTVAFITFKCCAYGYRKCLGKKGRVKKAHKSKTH

[1] = molecular target: T2, UDP-glucuronosyltransferase 1A3 (Homo sapiens, UniProt P35503); test: Drug metabolism assessed as recombinant human UGT1A3 assessed as N-glucuronidation at 100 uM incubated for 60 mins by LC-MS/MS analysis; assay type: ADME; details: recombinant enzyme, 1 h
T2 sequence (P35503 whole entry): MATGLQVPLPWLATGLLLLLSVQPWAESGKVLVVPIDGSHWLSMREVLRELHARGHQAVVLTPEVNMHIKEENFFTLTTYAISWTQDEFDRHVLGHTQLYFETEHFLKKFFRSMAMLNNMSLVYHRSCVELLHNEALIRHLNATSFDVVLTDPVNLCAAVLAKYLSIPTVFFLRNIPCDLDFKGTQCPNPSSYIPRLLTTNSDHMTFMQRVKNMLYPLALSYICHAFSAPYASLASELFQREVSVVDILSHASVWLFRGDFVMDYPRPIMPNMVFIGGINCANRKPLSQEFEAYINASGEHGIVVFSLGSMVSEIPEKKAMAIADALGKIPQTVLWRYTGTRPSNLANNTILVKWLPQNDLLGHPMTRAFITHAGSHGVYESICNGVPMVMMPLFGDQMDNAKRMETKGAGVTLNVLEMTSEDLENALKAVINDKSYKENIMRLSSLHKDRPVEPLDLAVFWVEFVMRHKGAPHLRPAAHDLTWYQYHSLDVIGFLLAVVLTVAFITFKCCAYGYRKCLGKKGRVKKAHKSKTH

UGT2B7 = molecular target: T3, UGT2B7 (Homo sapiens, UniProt P16662); test: Drug metabolism assessed as recombinant human UGT2B7 assessed as O-glucuronidation at 10 to 400 uM incubated for 60 mins by LC-MS/MS analysis
T3 sequence (P16662 whole entry): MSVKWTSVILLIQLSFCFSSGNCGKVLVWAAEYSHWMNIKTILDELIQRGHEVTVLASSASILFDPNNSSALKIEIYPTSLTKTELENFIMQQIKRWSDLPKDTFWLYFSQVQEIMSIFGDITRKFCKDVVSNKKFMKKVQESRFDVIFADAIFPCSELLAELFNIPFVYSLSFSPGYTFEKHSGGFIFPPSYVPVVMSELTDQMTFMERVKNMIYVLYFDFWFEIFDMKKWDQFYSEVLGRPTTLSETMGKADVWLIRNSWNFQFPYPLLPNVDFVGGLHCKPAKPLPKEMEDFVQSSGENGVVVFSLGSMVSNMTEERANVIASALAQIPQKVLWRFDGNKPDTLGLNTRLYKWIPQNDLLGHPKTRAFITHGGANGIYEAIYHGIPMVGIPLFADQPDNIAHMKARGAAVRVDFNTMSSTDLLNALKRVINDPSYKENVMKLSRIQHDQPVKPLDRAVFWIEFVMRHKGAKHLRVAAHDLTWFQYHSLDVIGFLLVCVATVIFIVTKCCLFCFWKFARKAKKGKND

UGT1A4 = molecular target: T4, UGT1A4 (Homo sapiens, UniProt P22310); test: Drug metabolism assessed as recombinant human UGT1A4 assessed as O-glucuronidation at 10 to 400 uM incubated for 60 mins by LC-MS/MS analysis
T4 sequence (P22310 whole entry): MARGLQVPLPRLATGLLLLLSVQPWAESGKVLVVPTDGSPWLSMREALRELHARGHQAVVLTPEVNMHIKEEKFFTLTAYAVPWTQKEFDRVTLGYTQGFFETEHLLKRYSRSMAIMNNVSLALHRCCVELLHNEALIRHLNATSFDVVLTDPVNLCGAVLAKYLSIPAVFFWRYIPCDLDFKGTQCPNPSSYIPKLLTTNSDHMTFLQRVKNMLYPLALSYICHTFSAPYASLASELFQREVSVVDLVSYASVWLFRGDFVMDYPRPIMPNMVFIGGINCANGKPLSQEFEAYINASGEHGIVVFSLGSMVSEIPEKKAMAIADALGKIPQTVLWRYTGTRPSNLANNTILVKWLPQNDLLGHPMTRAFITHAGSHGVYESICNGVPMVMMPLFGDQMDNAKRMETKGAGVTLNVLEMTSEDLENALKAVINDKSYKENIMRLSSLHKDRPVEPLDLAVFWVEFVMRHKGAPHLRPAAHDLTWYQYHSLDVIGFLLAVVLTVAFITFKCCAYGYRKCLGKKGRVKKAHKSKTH

[2] = molecular target: T5, UDP-glucuronosyltransferase 1A7 (Homo sapiens, UniProt Q9HAW7); test: Drug metabolism assessed as recombinant human UGT1A7 assessed as O-glucuronidation at 100 uM incubated for 60 mins by LC-MS/MS analysis; assay type: ADME; details: recombinant enzyme, 1 h
T5 sequence (Q9HAW7 whole entry): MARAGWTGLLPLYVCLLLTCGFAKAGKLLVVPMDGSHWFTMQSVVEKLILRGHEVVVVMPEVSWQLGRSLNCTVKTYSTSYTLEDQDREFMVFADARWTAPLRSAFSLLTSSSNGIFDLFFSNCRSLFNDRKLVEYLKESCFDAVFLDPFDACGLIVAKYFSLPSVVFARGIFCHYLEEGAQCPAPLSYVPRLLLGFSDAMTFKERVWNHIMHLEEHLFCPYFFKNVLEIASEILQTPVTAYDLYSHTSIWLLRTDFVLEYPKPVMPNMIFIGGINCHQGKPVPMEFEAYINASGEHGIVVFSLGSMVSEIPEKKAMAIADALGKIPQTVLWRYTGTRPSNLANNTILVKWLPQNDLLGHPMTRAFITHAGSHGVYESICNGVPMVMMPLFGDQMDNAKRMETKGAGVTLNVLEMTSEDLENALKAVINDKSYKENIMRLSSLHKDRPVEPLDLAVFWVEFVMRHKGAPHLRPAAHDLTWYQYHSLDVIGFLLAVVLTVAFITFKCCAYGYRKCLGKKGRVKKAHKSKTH

O=C(CCCN1CCC(O)(c2ccc(Cl)cc2)CC1)c1ccc(F)cc1 [HALOPERIDOL]
Km at 1 h, 400 µM (UGT1A9): 174 µM | Drug metabolism [1]: metabolite_not_detected | Km at 1 h, 400 µM (UGT2B7): 45 µM | Km at 1 h, 400 µM (UGT1A4): 64 µM | Drug metabolism [2]: metabolite_not_detected
